Laboratory results from US20070003531A1, “Methods for improving immunotherapy by enhancing survival of antigen-specific cytotoxic T lymphocytes” (University of Connecticut, priority 2005, published 2007).
Entries after “also recorded” stand apart in the source; their conditions may differ.

Key:
Assay type in all cases: cell-based, human
[1] = tested on: AIF release in Jurkat cells; assay: AIF release in CD3 induced AICD in Jurkat cells
Excerpt: FIG. 14. Nuclear translocation of AIF and effect of SP600125 on the AIF release and such translocation. The MART-1 epitope specific CTLs generated in the in vitro CTL generation protocol were restimulated by the cognate epitope or a control epitope in the presence or absence of the JNK inhibitor SP600125. (A) Western blot of heavy membrane faction (HM) and cytosolic fraction (S-100) of control CTL (C) and CTLs restimulated by the cognate peptide (M1). As shown, AIF is released in the cytosol of CTLs encountering the cognate peptide without any release of cytochrome c. (B) Effect of SP600125 on AIF release in CD3 induced AICD in Jurkat cells. As shown, AIF is released without cytochrome c release in these cells and SP600125 interferes with the AIF release. (C) Densitometric analysis of the SP600125 effect on AIF release.

[2] = tested on: MART-127-35 epitope specific CTLs; assay: IFN-γ response assay (ELISA)
Procedure: IFN-γ response assay for the effector cells has been described previously. Briefly, the effector cells were co-cultured with the peptide pulsed (1 μg/ml) T2 cells. After 4-16 h, culture supernatants were harvested and IFN-γ was measured by ELISA as per manufacturer's protocol (R & D Systems, MN).

Mart-1 primary CTLs = assay: Mitochondrial transmembrane potential (DiOC6 staining); conditions: induced by re-stimulation with cognate peptide; data not shown
Procedure: (§1) FIG. 12. Effect of antigen specific secondary stimulation on mitochondrial transmembrane membrane potential (Δψm), pro- and anti-apoptotic protein and expression of cell surface molecules. (A) Differential effect on membrane polarization in Mart-1 primary CTLs (top panel) vs. Jurkat T cells (bottom panel). CTLs were incubated with T2 cells either alone or loaded with peptide. After overnight secondary exposure cells were stained with Mart-1 tetramer/CD8 and DiOC6. Histogram represents the fluorescence of DiOC6 in the gated antigen specific tetramer^+ population (top panel). Jurkat T cells were also analyzed for modulation of membrane potential after TCR-driven stimulation (bottom panel). Values represent the mean±SD of fluorescence intensity triplicates from one out of three separate experiment. *p<0.001 (One Way ANOVA). […] (C) Expression of different cell surface receptors for survival or death signal in antigen specific population upon secondary stimulation. Values on left upper corner represent the geometric mean of the fluorescence intensity for that particular marker when stimulated with T2/MAGE-3271-279 while that on right upper corner represent the geometric mean of the fluorescence intensity when stimulated with T2/MART-127-35.

[3] = tested on: Bcl family proteins in CTL; assay: Western blot of Bcl family pro- and anti-apoptotic proteins in CTL after secondary stimulation
Procedure: as §1
Washed cell pellets were lysed in RIPA buffer and a cytosolic fraction was prepared by spinning the lysate at 15,000 rpm. Proteins (20 μg/well) were separated on 15% SDS-PAGE, transferred onto nitrocellulose filters, probed with appropriate antibodies. Antibodies for Bcl-2, phospho Bcl-2, Bim, BCI-XL, Bax, Actin were purchased from Santa-Cruz Biotechnology, Santa-Cruz, Calif. Anti-Mcl-1 antibody was purchased from BD Pharmingen, Palo Alto, Calif. Blots were developed by HRP-tagged secondary antibody (Santa-Cruz Biotechnology, Santa-Cruz, Calif.) using a chemoluminescence kit (Amersham Biosciences, Buckinghamshire, U. K.).

O=C1c2ccccc2-c2n[nH]c3cccc1c23 [SP600125, anthra[1,9-cd]pyrazol-6(2H)-one] was tested, and the “AIF release in Jurkat cells” value [1] was “interferes”, the “IFN-γ synthesis by rescued CTLs” value ([2]; five days continued culture in IL-15 without the inhibitor) was “regained” and the “IFN-γ response by CTLs in presence of inhibitor” value ([2]; peptide pulsed T2 cells, inhibitor 25 μM) was “inhibited; also recorded: negatively regulates”. For the same compound, the “level of hyper polarization of mitochondrial transmembrane potential” value (Mart-1 primary CTLs) was “decreased”, the BCI-XL expression [3] was “non-selectively up regulated” and the Bcl-2 expression [3] was “non-selectively up regulated”. The Mcl-1 level [3] was “selectively up regulated; also recorded: increased” and the “phosphorylated Bcl-2 level” value [3] was “selectively up regulated; also recorded: increased”.
